Results: US20050214217A1 (priority 2004, published 2005)
Entries after “also recorded” stand apart in the source; their conditions may differ.

Columns and labels:
[1] = tested on: human peripheral lymphocytes; settings: cited from earlier work
[2] = tested on: human T-cell lukemia (Jurkat) cells; assay: Bomapin expression in Jurkat cells; type: cell-based
From the text: (§1) Total RNA was extracted by using Trizol RNA isolation reagent (Molecular Research Center, Cincinnati, Ohio) based on the acid guanidinium thiocyanate-phenol-chloroform extraction method, according to manufacturer recommendations. RT-PCR was used to amplify the levels of endogenous Bomapin mRNA that may be present in the peripheral human T-cells and in the Jurkat cells (a human mature leukemic cell line that phenotypically resembles resting human T lymphocytes). The expression of the ribosomal protein S-14, derived from the same tissue preparations, served as an internal control. Each reaction contained four oligonucleotides primers, two for Bomapin and two for the internal control S-14. PCR conditions were: cDNA equivalent to 50 ng RNA was amplified for 30 cycles, the annealing temperature was 60° C. and the final MgCl2 concentration was 2.5 mM. The Taq DNA polymerase used in this study was the BIO-X-ACT DNA polymerase (Bioline UK Ltd., London. UK). The PCR products were separated electrophoretically on a 1.5% agarose gel containing ethidium bromide, and visualized under UV light.

[3] = tested on: GluR3 mRNA in normal human T-cells; assay: GluR3 mRNA expression by RT-PCR; type: cell-based; settings: Glutamate 10 mM, 24 hours
From the text: FIGS. 10A and 10B are ethidium bromide stained gels of RT-PCR amplified cDNA from two similar experiments.
as §1, with “from cultured T-cells” for “by”, “RT-PCR was used to amplify the levels of endogenous Bomapin mRNA that may be present in the peripheral human T-cells and in the Jurkat cells (a human mature leukemic cell line that phenotypically resembles resting human T lymphocytes).” left out, “cell” for “tissue”, “GluR3” for “Bomapin”
GluR3—5′[…] 3′ (SEQ. ID NO: 8) and 5′ […] 3′ (SEQ ID NO: 9) corresponding to nucleotides 699-718 (sense) and 1312-1331 (antisense) respectively. The predicted size of the band is […].

[4] = tested on: resting human peripheral T-cells; assay: Gene expression analysis with Atlas human cDNA expression array; type: cell-based; settings: Glutamate 10 nM, 72 hours, autoradiography and densitometry
From the text: FIGS. 1A-1D are tables illustrating the Glutamate-induced regulation of specific gene expression in the human T-cell, through analysis of gene expression using the atlas human cDNA expression array. […] The cDNA was hybridized to the atlas membranes according to the manual, and expression was visualized by autoradiography. […] Note the enhanced expression of T-cell genes such as Rapamycin-selective-25 KD Immunophilin (FKBP-25), Heat shock protein 40 (Hsp 40), Cathepsin E presursor, Carbonic anhydrase-related protein (carp) (ca-viii), peptidyl-glycine alpha-amidating monooxygenase presursor (pam), and axonemal dynein heavy chain (fragment) as well as of genes whose expression has been previously undetected in T cells such as Stimulator of Fe Transport (SFT), oviductal glycoprotein, Clathrin light chain, Protein Inhibitor of Activated STAT (PIAS) and Cartilage Intermediate Layer Protein (CILP) (FIG. 1A).
Hybridizations to the Atlas Human cDNA Expression Arrays membranes (Catalog No. 1.2 KIII (7850-1) and III (7855-1), Clontech Laboratories) were performed by Clonetech Laboratories, as described in the user manual. Analysis of the expression pattern of up and down regulated genes, as compared to that of untreated T-cells, was performed by Clontech, as described in their manual. […]

[5] = tested on: normal human T-cells; assay: In-vitro chemotactic migration assay towards SDF-1; type: cell-based; settings: pre-treatment 66 hours, Glutamate 10^−8, fibronectin-coated filters
Description: FIG. 8 illustrates the Glutamate-induced migration of normal human T-cells towards the chemokine SDF-1. […] The cells in each experimental group were counted by FACSORT. The results are expressed as the number of fluorescently-labeled migrating Glutamate-treated T-cells vs. untreated controls (Untreated).
The cells were then washed, resuspended in adhesion medium, and added to the upper chambers (2×10^5 cells per 100 μl well) of a 24-well chemotaxis microchamber plate (Corning Inc., Corning, N.Y.). The two compartments of the microchambers were separated by polycarbonate filters ([…]) pre-coated with fibronectin or laminin ([…], about 1.5 hour, 37° C.). The lower chambers contained adhesion medium, which was supplemented, where indicated, with 100-250 ng/ml of the chemokine stromal cell-derived factor 1a (SDF-1a, Peprotech Inc., Rocky Hill, N.J.). The chemotaxis microchamber plate was incubated (3 hours, 37° C., 7.5% CO2 humidified incubator), the filter-containing upper chambers were gently removed and the contents of the individual lower chambers (containing the migrated cells) thoroughly mixed by pipetting and transferred into clean tubes. The number of cells in each tube was determined by FACSORT. Counting time for all the experimental groups was two minutes. […]

[6] = tested on: normal human T-cells; assay: T-cell adhesion assay to fibronectin and laminin; type: cell-based; settings: for Blocking of the glutamate effect on integrin-mediated T-cell adhesion to laminin and fibronectin: Glutamate 10 nM
Description: Adhesion of untreated cells (BG) serves as a control. The results are expressed as the OD405 of the lysed, fibronectin- or laminin-adherent cells remaining after incubation and repeated washings.
Adhesion of T-cells to fibronectin and laminin was assayed as follows: normal human T-cells, purified from a fresh blood sample, were suspended (1×10^6 cells/ml) in rest medium (RPMI-1640, supplemented with 10% fetal calf serum (Sigma Chemical Co., St. Louis, Mo.), 1% antibiotics, 1% glutamine (Biological Industries, Beit Haemek, Israel) and 0.4% fungizone (GibcoBRL, Life Technologies Ltd., Paisley, Scotland)). […] Following incubation the cells were washed and resuspended in adhesion medium (RPMI-1640 supplemented with 0.1% bovine serum albumin (BSA, Sigma)). The cells were then seeded in 96 well flat-bottomed microtiter plates (Falcon, Becton Dickinson, Heidelberg, Germany, 1×10^5 cells/100 μl/well pre-coated with fibronectin or laminin (ICN Biomedicals Inc., Aurora, Ohio, […], 18 hours, 4° C.). Cells treated with phorbol 12-myristate 13-acetate (PMA, Sigma, 10 ng/ml) served as a positive control. The adhesion plates were incubated (37° C., 30 minutes, 7.5% CO2 humidified incubator), and then washed several times with PBS to remove non-adherent T-cells. The adhered cells were lysed by adding 60 μl/well of lysis-substrate solution (0.5% Triton X-100 in water mixed with an equal volume of 7.5 mM p-nitrophenol-N-acetyl-β-D-glucosaminide (Sigma, St. Louis, Mo.) in 0.1M citrate buffer pH=5.0). The plates were then incubated for 18 h in a CO2-devoid 37° C. incubator, and the reaction was stopped by the addition of […] of 50 mM glycine (Sigma, St Louis, Mo.) pH=10.4, containing 5 mM EDTA. The optical density (OD) was measured at 405 nm in a standard ELISA reader. The OD was converted to actual number of cells using a standard curve performed in each experiment.

[7] = tested on: cloned resting human Th1 cells (clone 305); assay: Cytokine secretion by ELISA, resting cloned Th1 cells; type: cell-based; settings: 10^−8 M Glutamate, versus untreated
Description: The results are expressed as pg/ml IL-10.
The results are expressed as pg/ml IL-4.
(§2) Human T-cell clones were prepared essentially as described by Besser M and Wank J (Besser M and Wank J, J Immunol 1999; 162:6303-306): Human PBMC were purified from whole blood by Ficoll gradient (Amersham Pharmacia Biotech, Freiburg, Germany). CD4^+ Th (T-helper) cells were isolated by using CD4 mAbs coupled to magnetic beads (Dynal, Hamburg, Germany). T cells were cultured at 1-2×10^6 cells/ml either in the presence of 1% PHA (Difco, Hamburg, Germany), 20 μg of anti-CD3 (OKT-3, Cilag, Sulzbach, Germany)-precoated plates in combination with IL-2 (20 U/ml) or IL-4 (100 U/ml), or with 100 ng/ml neurotrophins (Prepro, London, England), 20 U/ml IL-2 (Chiron, Ratingen, Germany), 100 U/ml IL-4 (Genzyme, Ruesselsheim, Germany) or 500 U/ml IFN-γ (Thomae, Bicherach an der Riss, Germany) alone. RPMI 1640 culture medium (Life Technologies, Eggenstein, Germany) was supplemented with 10% FCS (Life Technologies). Alloprimed PBMC were seeded at 0.4 cell/well on allogeneic specific feeder layer. […] Constitutive expression in immune cell bulk cultures was assessed immediately after cell separation, in cloned T lymphocytes after 3 days without further addition of IL-2.
(§3) Cytokine levels were measured in supernatants from Glutamate stimulated human T-cell cultured as described hereinabove. […]

[8] = tested on: cloned human Th1 cells (clone 305); assay: IFN-γ secretion by ELISA, activated (alloprimed) cloned Th1 cells; type: cell-based; settings: 20 hours, 10^−8M Glutamate plus mismatched allopriming B cells, versus antigen stimulation alone
Description: (§4) The results are expressed as pg/ml IFN-γ.
as §2, §3

[9] = tested on: cloned resting human Th2 cells (clone 401); assay: Cytokine secretion by ELISA, resting cloned Th2 cells; type: cell-based; settings: 10^−8 M Glutamate, no antigen stimulation, versus untreated
Description: The results are expressed as pg/ml IL-4. Note the clear induction of IL-4 secretion in the Glutamate-treated cells, absent in the non-activated cells.
as §2, with “Technologies).” for “Technologies). Alloprimed PBMC were seeded at 0.4 cell/well on allogeneic specific feeder layer.”
as §3

[10] = tested on: cloned human Th0 cells (clone 234); assay: IFN-γ secretion by ELISA, activated (alloprimed) cloned Th0 cells; type: cell-based; settings: 20 hours, 10^−8M Glutamate plus mismatched allopriming B cells, versus antigen stimulation alone
Description: as §4, §2, §3

[11] = tested on: Bomapin mRNA in peripheral human T-cells; assay: Bomapin expression by quantitative RT-PCR in peripheral human T-cells; type: cell-based
Description: PCR was performed for 30 cycles. The ethidium bromide bands corresponding to the amplified bomapin transcripts were quantified by AlphaEase program (Alpha Innotech, San Leandro, Calif., USA). Each PCR tube contained four oligonucleotides primers, two for the Bomapin and two for the internal control (S-14).
Neurotransmitters, agonists and antagonists were added and the cells were incubated at 37 C°, 5% CO2 for up to 72 hours, as indicated for individual experiments. The incubated T-cells were then collected and used for further experimentation.
Total RNA was extracted by using Trizol RNA isolation reagent (Molecular Research Center, Cincinnati, Ohio) based on the acid guanidinium thiocyanate-phenol-chloroform extraction method, according to manufacturer recommendations. RT-PCR was used to amplify the levels of endogenous Bomapin mRNA that may be present in the peripheral human T-cells and in the Jurkat cells (a human mature leukemic cell line that phenotypically resembles resting human T lymphocytes). The expression of the ribosomal protein S-14, derived from the same tissue preparations, served as an internal control. Each reaction contained four oligonucleotides primers, two for Bomapin and two for the internal control S-14. PCR conditions were: cDNA equivalent to 50 ng RNA was amplified for 30 cycles, the annealing temperature was 60° C. and the final MgCl2 concentration was 2.5 mM. […]

[12] = PHA or mAb activated human peripheral lymphocytes
[13] = 10^−8M Glutamate, 30 minutes, versus untreated (BG)
[14] = CNQX added to Glutamate during incubation

O=C(O)c1cc(=O)c2ccccc2[nH]1 [KYNA, reference compound]
Effect on Glutamate potentiation in activated lymphocytes [1, 12]: inhibition of Glutamate potentiation

N[C@@H](CCC(=O)O)C(=O)O [Glutamate]
Bomapin expression [2]: induces expression | RT-PCR-amplified GluR3 cDNA transcripts [3]: absence of RT-PCR-amplified GluR3 Glutamate receptor cDNA transcripts | Differential pattern of gene expression versus untreated cells [4]: induced the over expression of mRNA encoding for several genes; also recorded: down-regulated the expression of others | Migration towards the chemoattractant SDF-1 (number of migrating cells) [5]: significantly augments | T-cell adhesion to fibronectin [6, 13]: significant increase | T-cell adhesion to laminin [6, 13]: significant increase | IL-4 secretion ("forbidden" cytokine) [7]: significant induction | IL-10 secretion ("forbidden" cytokine) [7]: significant induction | IFN-γ secretion [8]: additional significant IFN-γ secretion | IL-4 secretion [9]: strong release of IL-4 | Ca++ influx and proliferation in activated lymphocytes [1, 12]: induction of Ca^++ influx and proliferation | Effect on unstimulated, resting lymphocytes ([1]; high levels (1 mM) of Glutamate): no effect | IFN-γ secretion [10]: additional significant IFN-γ secretion | Bomapin mRNA level versus untreated cells ([11]; Glutamate 10 nM, 72 hours, 30 PCR cycles, S-14 internal control): about 6 fold

N#Cc1cc2[nH]c(=O)c(=O)[nH]c2cc1[N+](=O)[O-] [CNQX]
Effect on Glutamate-mediated fibronectin binding [6, 14]: strongly inhibits | Effect on Glutamate-mediated laminin binding [6, 14]: strongly inhibits | Blocking of the glutamate effect on integrin-mediated T-cell adhesion to laminin and fibronectin [6]: blocked specifically | Glutamate-induced Bomapin transcripts in the presence of antagonist ([11]; T-cells treated with Glutamate in the presence of CNQX): absence of detectable Bomapin transcripts

NS(=O)(=O)c1cccc2c1c([N+](=O)[O-])cc1nc(O)c(O)nc12 [NBQX, reference compound]
Blocking of the glutamate effect on integrin-mediated T-cell adhesion to laminin and fibronectin [6]: blocked specifically | Effect on Glutamate potentiation in activated lymphocytes [1, 12]: inhibition of Glutamate potentiation
